{"source": "paper PMC2855214", "about": "(Biochemistry, 2010)", "molecular_target": "T1, human UMP/CMP kinase (Homo sapiens, UniProt P30085)", "T1 sequence (P30085 1-196)": "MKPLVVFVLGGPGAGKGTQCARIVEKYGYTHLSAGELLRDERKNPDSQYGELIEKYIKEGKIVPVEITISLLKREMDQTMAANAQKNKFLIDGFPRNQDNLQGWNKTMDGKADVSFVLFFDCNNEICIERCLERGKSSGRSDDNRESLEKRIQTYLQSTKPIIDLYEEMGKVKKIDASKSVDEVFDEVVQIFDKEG", "assay": "preparative enzymatic phosphorylation, product NMR", "type": "biochemical", "conditions": "ATP, Mg2+, pH 8, 37 °C"}
{"compound": "Nc1ccn([C@@H]2O[C@H](COP(=O)(O)O)[C@@H](O)C2(F)F)c(=O)n1", "note": "[F2CMP, 2′-Deoxy-2′,2′-difluorocytidine-5′-monophosphate]", "values": [{"measurement": "preparative enzymatic phosphorylation, product NMR", "value": "F2CDP was generated enzymatically from F2CMP and ATP with human UMP/CMP kinase"}]}
